Results: the kinase profiling compilation of Christmann-Franck et al. (2016)

How the values were obtained:
Assay in all cases: split-luciferase competition binding
[1] = biological target: AURKC (human) (UniProt Q9UQB9); conditions: compound 10.0 µM
[2] = biological target: RPS6KA3 KD1 (human) (UniProt P51812); conditions: compound 10.0 µM
[3] = biological target: PRKCH (human) (UniProt P24723); conditions: compound 10.0 µM
[4] = biological target: RPS6KA5 KD1 (human) (UniProt O75582); conditions: compound 10.0 µM
[5] = biological target: RPS6KA1 KD1 (human) (UniProt Q15418); conditions: compound 10.0 µM
[6] = biological target: AURKB (human) (UniProt Q96GD4); conditions: compound 10.0 µM
[7] = biological target: RPS6KA6 KD1 (human) (UniProt Q9UK32); conditions: compound 10.0 µM
[8] = biological target: SGK2 (human) (UniProt Q9HBY8); conditions: compound 10.0 µM
[9] = biological target: AKT1 (human) (UniProt P31749); conditions: compound 10.0 µM
[10] = biological target: AKT2 (human) (UniProt P31751); conditions: compound 10.0 µM
[11] = biological target: PDPK1 (human) (UniProt O15530); conditions: compound 10.0 µM
[12] = biological target: PRKX (human) (UniProt P51817); conditions: compound 10.0 µM
[13] = biological target: PRKCI (human) (UniProt P41743); conditions: compound 10.0 µM
[14] = biological target: PRKCD (human) (UniProt Q05655); conditions: compound 10.0 µM
[15] = biological target: PRKACB (human) (UniProt P22694); conditions: compound 10.0 µM
[16] = biological target: PRKCG (human) (UniProt P05129); conditions: compound 10.0 µM
[17] = biological target: RPS6KA2 KD1 (human) (UniProt Q15349); conditions: compound 10.0 µM
[18] = biological target: DMPK (human) (UniProt Q09013); conditions: compound 10.0 µM
[19] = biological target: PKN1 (human) (UniProt Q16512); conditions: compound 10.0 µM
[20] = biological target: SGK3 (human) (UniProt Q96BR1); conditions: compound 10.0 µM
[21] = biological target: PRKCE (human) (UniProt Q02156); conditions: compound 10.0 µM
[22] = system: PRKACA (mouse); conditions: compound 10.0 µM; accession and sequence are those of the human protein
[23] = biological target: PRKCQ (human) (UniProt Q04759); conditions: compound 10.0 µM
[24] = biological target: RPS6KA4 KD1 (human) (UniProt O75676); conditions: compound 10.0 µM
[25] = biological target: AKT3 (human) (UniProt Q9Y243); conditions: compound 10.0 µM
[26] = biological target: AURKA (human) (UniProt O14965); conditions: compound 10.0 µM
[27] = biological target: STK32B (human) (UniProt Q9NY57); conditions: compound 10.0 µM
Chain of STK32B (human) (Q9NY57 whole entry, looked up): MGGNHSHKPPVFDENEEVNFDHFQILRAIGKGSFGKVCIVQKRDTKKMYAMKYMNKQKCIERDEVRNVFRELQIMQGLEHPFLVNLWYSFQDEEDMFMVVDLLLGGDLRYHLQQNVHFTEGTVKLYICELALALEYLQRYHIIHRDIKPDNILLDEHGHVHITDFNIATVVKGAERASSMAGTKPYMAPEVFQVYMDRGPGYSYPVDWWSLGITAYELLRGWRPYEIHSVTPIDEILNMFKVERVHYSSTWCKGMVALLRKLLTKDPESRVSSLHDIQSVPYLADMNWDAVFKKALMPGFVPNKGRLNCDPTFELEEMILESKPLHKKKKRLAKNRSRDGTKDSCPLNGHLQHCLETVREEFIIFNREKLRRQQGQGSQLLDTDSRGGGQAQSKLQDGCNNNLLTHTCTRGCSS

Chain of PRKX (human) (P51817 whole entry, looked up): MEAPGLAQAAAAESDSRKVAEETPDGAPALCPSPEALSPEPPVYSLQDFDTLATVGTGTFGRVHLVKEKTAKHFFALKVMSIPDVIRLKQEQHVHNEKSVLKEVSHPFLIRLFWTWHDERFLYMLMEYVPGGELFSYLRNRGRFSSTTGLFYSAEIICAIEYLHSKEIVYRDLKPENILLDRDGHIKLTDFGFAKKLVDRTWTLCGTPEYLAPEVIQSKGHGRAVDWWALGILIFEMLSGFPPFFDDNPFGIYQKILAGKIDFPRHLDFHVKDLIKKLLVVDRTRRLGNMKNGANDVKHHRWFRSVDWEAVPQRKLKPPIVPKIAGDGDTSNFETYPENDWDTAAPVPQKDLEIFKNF
Chain of SGK3 (human) (Q96BR1 whole entry, looked up): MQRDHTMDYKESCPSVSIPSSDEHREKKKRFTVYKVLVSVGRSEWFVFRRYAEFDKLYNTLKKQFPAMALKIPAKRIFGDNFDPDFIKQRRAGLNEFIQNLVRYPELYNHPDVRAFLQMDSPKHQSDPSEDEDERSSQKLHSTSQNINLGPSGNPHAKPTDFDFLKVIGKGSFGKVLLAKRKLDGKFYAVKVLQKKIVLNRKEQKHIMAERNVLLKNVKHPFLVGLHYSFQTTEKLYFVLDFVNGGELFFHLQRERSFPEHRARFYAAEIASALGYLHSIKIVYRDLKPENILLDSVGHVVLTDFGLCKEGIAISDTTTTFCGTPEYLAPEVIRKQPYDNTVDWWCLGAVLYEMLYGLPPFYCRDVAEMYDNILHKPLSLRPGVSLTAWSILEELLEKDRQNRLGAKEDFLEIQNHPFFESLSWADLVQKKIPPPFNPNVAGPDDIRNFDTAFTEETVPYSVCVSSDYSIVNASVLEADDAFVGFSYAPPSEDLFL
Chain of AURKB (human) (Q96GD4 whole entry, looked up): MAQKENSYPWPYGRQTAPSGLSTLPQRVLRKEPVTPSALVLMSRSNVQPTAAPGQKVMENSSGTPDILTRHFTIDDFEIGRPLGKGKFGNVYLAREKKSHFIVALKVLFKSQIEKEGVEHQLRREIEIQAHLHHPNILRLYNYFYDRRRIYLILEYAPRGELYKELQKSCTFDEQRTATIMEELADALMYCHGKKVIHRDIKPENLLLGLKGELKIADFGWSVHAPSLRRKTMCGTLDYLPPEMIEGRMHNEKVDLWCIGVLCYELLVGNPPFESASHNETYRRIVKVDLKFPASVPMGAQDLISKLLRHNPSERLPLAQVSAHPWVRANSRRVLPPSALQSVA
Chain of PDPK1 (human) (O15530 whole entry, looked up): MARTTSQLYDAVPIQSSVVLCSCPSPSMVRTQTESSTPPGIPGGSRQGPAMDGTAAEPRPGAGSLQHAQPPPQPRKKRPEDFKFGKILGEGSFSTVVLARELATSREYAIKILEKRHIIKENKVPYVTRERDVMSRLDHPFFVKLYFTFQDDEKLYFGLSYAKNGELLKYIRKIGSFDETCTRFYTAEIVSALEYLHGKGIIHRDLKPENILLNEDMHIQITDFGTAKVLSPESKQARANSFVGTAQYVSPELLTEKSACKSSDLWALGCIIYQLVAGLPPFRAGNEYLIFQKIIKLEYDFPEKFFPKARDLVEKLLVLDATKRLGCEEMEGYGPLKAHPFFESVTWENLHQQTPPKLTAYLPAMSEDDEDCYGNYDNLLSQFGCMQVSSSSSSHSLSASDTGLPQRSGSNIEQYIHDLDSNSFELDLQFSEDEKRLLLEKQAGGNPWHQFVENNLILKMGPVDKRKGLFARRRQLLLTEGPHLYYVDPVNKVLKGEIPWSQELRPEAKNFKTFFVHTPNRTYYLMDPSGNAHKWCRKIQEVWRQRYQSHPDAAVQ
Chain of PKN1 (human) (Q16512 whole entry, looked up): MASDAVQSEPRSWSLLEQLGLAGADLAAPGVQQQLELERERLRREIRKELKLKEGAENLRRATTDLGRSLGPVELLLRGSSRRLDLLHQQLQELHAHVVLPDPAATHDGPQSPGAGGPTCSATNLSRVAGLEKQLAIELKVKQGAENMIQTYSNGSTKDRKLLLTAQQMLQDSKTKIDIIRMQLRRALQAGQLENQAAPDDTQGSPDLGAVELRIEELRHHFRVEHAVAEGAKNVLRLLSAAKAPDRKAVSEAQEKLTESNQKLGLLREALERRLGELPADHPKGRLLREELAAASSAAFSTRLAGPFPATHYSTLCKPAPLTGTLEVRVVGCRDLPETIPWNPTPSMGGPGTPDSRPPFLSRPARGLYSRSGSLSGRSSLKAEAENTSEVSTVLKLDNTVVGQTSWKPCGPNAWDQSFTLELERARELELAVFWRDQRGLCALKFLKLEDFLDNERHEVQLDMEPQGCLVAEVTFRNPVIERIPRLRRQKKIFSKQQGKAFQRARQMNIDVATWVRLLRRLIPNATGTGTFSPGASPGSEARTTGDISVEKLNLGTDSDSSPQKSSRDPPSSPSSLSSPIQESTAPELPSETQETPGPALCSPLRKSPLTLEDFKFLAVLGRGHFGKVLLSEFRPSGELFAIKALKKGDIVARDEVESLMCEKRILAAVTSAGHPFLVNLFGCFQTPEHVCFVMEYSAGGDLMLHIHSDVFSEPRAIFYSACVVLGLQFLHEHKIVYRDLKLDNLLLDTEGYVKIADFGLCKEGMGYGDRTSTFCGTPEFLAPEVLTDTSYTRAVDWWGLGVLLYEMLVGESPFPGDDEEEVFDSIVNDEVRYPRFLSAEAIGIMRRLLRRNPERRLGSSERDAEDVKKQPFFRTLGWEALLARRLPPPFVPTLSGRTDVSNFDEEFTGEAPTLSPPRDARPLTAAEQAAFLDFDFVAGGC
Chain of RPS6KA6 KD1 (human) (Q9UK32 whole entry, looked up): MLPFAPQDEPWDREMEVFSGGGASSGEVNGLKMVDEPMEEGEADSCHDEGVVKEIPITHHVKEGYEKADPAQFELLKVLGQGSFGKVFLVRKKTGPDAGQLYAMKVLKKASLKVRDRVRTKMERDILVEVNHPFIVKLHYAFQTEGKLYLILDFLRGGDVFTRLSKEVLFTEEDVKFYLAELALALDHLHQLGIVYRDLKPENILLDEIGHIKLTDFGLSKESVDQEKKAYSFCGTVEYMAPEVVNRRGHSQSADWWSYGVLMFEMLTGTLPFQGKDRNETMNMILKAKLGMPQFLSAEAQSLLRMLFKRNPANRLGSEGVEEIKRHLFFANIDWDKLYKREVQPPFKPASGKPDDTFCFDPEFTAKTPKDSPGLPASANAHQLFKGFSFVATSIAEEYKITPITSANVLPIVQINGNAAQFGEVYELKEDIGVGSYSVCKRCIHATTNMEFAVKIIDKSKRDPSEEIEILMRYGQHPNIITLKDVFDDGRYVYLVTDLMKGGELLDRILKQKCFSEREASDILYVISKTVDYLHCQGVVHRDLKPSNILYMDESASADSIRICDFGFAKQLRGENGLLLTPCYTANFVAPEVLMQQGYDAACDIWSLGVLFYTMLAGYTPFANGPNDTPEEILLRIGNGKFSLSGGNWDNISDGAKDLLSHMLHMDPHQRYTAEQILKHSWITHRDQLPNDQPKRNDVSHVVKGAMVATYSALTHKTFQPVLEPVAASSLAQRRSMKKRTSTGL
Chain of PRKCH (human) (P24723 whole entry, looked up): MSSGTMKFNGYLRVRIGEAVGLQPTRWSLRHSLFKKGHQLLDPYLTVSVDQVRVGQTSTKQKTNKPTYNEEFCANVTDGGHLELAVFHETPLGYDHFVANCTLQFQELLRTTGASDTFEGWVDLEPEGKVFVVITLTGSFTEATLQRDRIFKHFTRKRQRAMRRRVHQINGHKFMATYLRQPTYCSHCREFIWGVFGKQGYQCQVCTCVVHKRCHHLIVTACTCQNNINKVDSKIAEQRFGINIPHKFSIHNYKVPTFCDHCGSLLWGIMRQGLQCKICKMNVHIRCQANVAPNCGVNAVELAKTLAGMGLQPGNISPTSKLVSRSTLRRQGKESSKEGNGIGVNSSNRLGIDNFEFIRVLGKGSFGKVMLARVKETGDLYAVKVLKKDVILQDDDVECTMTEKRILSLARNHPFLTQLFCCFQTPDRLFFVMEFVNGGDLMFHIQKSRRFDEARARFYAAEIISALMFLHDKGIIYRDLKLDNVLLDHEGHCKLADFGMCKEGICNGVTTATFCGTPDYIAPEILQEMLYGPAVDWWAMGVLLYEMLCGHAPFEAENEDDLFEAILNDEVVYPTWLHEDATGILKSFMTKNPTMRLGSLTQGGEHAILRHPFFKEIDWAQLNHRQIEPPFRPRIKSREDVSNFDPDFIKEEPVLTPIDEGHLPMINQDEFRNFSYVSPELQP
Chain of AURKA (human) (O14965 whole entry, looked up): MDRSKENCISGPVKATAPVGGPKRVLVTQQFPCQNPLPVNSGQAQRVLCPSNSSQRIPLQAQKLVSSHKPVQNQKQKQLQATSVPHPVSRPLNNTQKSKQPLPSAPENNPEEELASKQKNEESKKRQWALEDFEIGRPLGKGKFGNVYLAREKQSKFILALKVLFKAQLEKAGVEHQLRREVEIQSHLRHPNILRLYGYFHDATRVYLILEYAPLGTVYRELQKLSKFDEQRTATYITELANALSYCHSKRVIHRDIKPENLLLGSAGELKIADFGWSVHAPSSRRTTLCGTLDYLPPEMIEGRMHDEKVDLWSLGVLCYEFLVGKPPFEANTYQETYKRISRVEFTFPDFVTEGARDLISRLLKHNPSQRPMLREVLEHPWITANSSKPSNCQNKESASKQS

Structure (SMILES) | inhibition [1] [%] | inhibition [2] [%] | inhibition [3] [%] | inhibition [4] [%] | inhibition [5] [%] | inhibition [7] [%] | inhibition [8] [%] | inhibition [9] [%] | inhibition [10] [%] | inhibition [11] [%] | inhibition [12] [%] | inhibition [13] [%] | inhibition [14] [%] | inhibition [15] [%] | inhibition [16] [%] | inhibition [17] [%] | inhibition [18] [%] | inhibition [19] [%] | inhibition [20] [%] | inhibition [21] [%] | also measured
O=C1NC(=O)c2c1c1c3ccccc3[nH]c1c1[nH]c3ccccc3c21 | 35 | 23 | 65 | 47 | 51 | 36 | 70 | 22 | 0 | 22 | 62 | 0 | 17 | 20 | 7 | 42 | 30 | 0 | 81 | 25 | inhibition [6]: 50%; inhibition [22]: 27%; inhibition [23]: 45%; inhibition [24]: 55%; inhibition [25]: 0%; inhibition [26]: 1%; inhibition [27]: 9%
NC(=O)c1sc(-c2ccsc2)cc1N | 0 | 0 | 11 | 0 | 0 | 24 | 0 | 0 | 0 | 0 | 0 | 0 | 0 | 2 | 0 | 0 | 0 | 0 | 0 | 0 | inhibition [6]: 0%; inhibition [22]: 0%; inhibition [23]: 0%; inhibition [24]: 0%; inhibition [25]: 0%; inhibition [26]: 0%; inhibition [27]: 0%
N#C/C(=C\c1ccc(O)c(O)c1)C(N)=S | 0 | 0 | 0 | 0 | 0 | 0 | 0 | 0 | 0 | 0 | 0 | 0 | 0 | 0 | 0 | 0 | 0 | 5 | 0 | 0 | inhibition [6]: 0%; inhibition [22]: 4%; inhibition [23]: 0%; inhibition [24]: 0%; inhibition [25]: 0%; inhibition [26]: 1%; inhibition [27]: 1%
CCN(CC)CCCCN1c2ccccc2Oc2ccc(Cl)cc21 | 16 | 0 | 0 | 0 | 0 | 0 | 0 | 0 | 0 | 0 | 7 | 2 | 0 | 0 | 0 | 7 | 7 | 6 | 0 | 3 | inhibition [6]: 8%; inhibition [22]: 0%; inhibition [23]: 4%; inhibition [24]: 0%; inhibition [25]: 0%; inhibition [26]: 0%; inhibition [27]: 0%
COc1cc2ncn(-c3cc(OCc4ccccc4C(F)(F)F)c(C(N)=O)s3)c2cc1OC | 28 | 27 | 0 | 0 | 10 | 59 | 4 | 12 | 0 | 2 | 11 | 0 | 4 | 12 | 10 | 30 | 18 | 4 | 0 | 12 | inhibition [22]: 14%; inhibition [23]: 23%; inhibition [24]: 14%; inhibition [25]: 0%; inhibition [26]: 2%; inhibition [27]: 15%

More lines, main results first:

inhibition [1] [%] | inhibition [2] [%] | inhibition [3] [%] | inhibition [4] [%] | inhibition [5] [%] | inhibition [7] [%] | inhibition [8] [%] | inhibition [9] [%] | inhibition [10] [%] | inhibition [11] [%] | inhibition [12] [%] | inhibition [13] [%] | inhibition [14] [%] | inhibition [15] [%] | inhibition [16] [%] | inhibition [17] [%] | inhibition [18] [%] | inhibition [19] [%] | inhibition [20] [%] | inhibition [21] [%] | Structure (SMILES) | also measured
0 | 0 | 0 | 0 | 0 | 0 | 0 | 0 | 0 | 0 | 0 | 3 | 0 | 0 | 0 | 0 | 0 | 0 | 0 | 0 | N#CC(=C(\N)Sc1ccccc1N)/C(C#N)=C(/N)Sc1ccccc1N | inhibition [6]: 0%; inhibition [22]: 0%; inhibition [23]: 0%; inhibition [24]: 0%; inhibition [25]: 0%; inhibition [26]: 0%; inhibition [27]: 0%
2 | 0 | 0 | 2 | 0 | 5 | 3 | 2 | 0 | 0 | 0 | 1 | 0 | 3 | 0 | 0 | 7 | 0 | 1 | 1 | NC(=O)c1ccc(-c2nc(-c3ccccn3)c(-c3ccc4c(c3)OCCO4)[nH]2)cc1 | inhibition [6]: 0%; inhibition [22]: 0%; inhibition [23]: 1%; inhibition [24]: 0%; inhibition [25]: 0%; inhibition [26]: 0%; inhibition [27]: 0%
0 | 0 | 0 | 0 | 0 | 0 | 2 | 0 | 0 | 0 | 0 | 0 | 0 | 0 | 0 | 0 | 0 | 4 | 0 | 0 | O=C1c2ccccc2-c2n[nH]c3cccc1c23 | inhibition [6]: 6%; inhibition [22]: 0%; inhibition [23]: 0%; inhibition [24]: 0%; inhibition [25]: 0%; inhibition [26]: 0%; inhibition [27]: 0%
0 | 0 | 0 | 0 | 0 | 0 | 0 | 0 | 0 | 0 | 0 | 0 | 0 | 0 | 0 | 0 | 0 | 2 | 0 | 0 | C=CC(=O)c1ccc2ccccc2c1 | inhibition [6]: 0%; inhibition [22]: 0%; inhibition [23]: 0%; inhibition [24]: 0%; inhibition [25]: 0%; inhibition [26]: 0%; inhibition [27]: 0%
